Data as given in US20020026052A1, “3-cyanoquinolines, 3-cyano-1,6-naphthyridines, and 3-cyano-1,7-naphthyridines as protein kinase inhibitors” (American Home Products Corporation, priority 2000, published 2002).
Where “and” joins values, the source holds several entries; their conditions need not be identical. Equal entries are not always repeated.

Legend:
[1] = system: Human adenocarcinoma cell line LoVo; experiment: Cell Based Screen for Inhibitors of Raf Kinase, LoVo; conditions: four days incubation, SRB
Experimental: (§1) Cell Based Screen for Inhibitors of Raf Kinase.
(§2) Cell Lines: Human adenocarcinoma cell line LoVo which is known to be growth inhibited by low nM concentrations of a reference standard inhibitor of Ras and human adenocarcinoma cell line CaCo-2, which is known to be growth resistant to the same reference compound. Cell Media: RPMI 1640 with 10% Fetal Bovine Serum supplemented with L-glutamine and Pennicilin/Streptomycin. Compounds: Supplied usually as a 10 mM stock in 100% DMSO. Normal Saline: 150 mM NaCl Trichloroacetic Acid (TCA): 50% (w/v) in water Sulforhodamine B (SRB): 0.4% (w/v) in 1% Acetic Acid Tris Base: 10 mM in water
(§3) Cells are plated at 2000 cells per well for cell line LoVo and 1500 cells for cell line CaCo-2 in 96 well plates. Cells are plated in media (200 μl) and allowed to adhere overnight at 37 ° C. At 24 hours post plating, compounds are added directly at a volume of 0.5 μl. For the qualitative screen (compounds screened at 25 μM) compound is added directly to cells. For the quantitative screen, compound is first diluted in DMSO to generate concentrations of compound or reference standard of: 1, 5, 10 and 25 μM. It is advisable to make the dilutions in an identical 96 well plate so that compounds may be added using a multichannel micropipettor set at 0.5 μl. The cells are then incubated for four days after which the media is removed using a 12 well manifold by first tipping the plate forward at a 45 degree angle and then inserting the manifold in an upright orientation to prevent the ti
(§4) of the manifold from disturbing cells at the bottom of the plate. 200 μl of normal saline is then added to each well using an 8 well multichannel pipettor, followed by the careful addition of 50 μl of 50% TCA. The plates are then incubated for 2 hours at 4 ° C, after which the supernatant is removed using the same technique as above and the plated washed twice with 200 ul water. The plates are then air dried and 50 μl of SRB stock solution is carefully added so that the entire bottom of each well is covered. This again may be used using an 8 well multichannel pipettor. The SRB is incubated with fixed cells for 15 minutes at room temperature after which the SRB is removed with the manifold as described above and the plates washed twice with 350 μl of 1% acetic acid per well each time.The plates are then air dried after which the bound SRB is released from protein by the addition of 200 µl of Tris base. Resolubilizing the SRB is aided by placing the plates on a rotator for 15-30 minutes. The absorbance of each well is determined at 550 or 562 nm using a microtiter plate reader.
(§5) Each compound or dilution thereof is performed in triplicate. Outliers are identified by visual inspection of the data. Each plate should have a “0” control (vehicle only). […] Quantitative Assay: A standard curve is constructed by plotting the concentration of compound against the average absorbance calculated at that concentration. A curve is plotted and the concentration at which the curve passes through the 50% the absorbance mark seen in the “0” control well is the IC50 calculated for that compound. Multiple entries for a given compound indicate that it was tested multiple times.

[2] = target: T1, Raf1 (c-Raf) (Homo sapiens, UniProt P04049); experiment: Raf1 Kinase Cascade Assay; format: biochemical
T1 construct: Sf9 insect cell lysate containing full length 6 his-tagged recombinant human c—Raf; 6His; host or cells: Sf9 insect cells (c-Raf, used as lysate); E. coli (GST-MEK1, GST-MAPK)
Experimental: Raf1 Kinase Cascade Assay Procedure
(Specific Activity: ˜200 U/ml). Human Non-active Mek-1—GST and human GST-MAP kinase (recombinant proteins produced in E. coli).
Stock Solutions Raf Assay:
Assay Dilution Buffer (ADB): 2 OmM MOPS, pH 7.2, 25 mM B-glycerol phosphate, mM EGTA, 1 mM sodium orthovanadate, 1 mM dithiothreitol. Magnesium/ATP Cocktail: 500 AM cold ATP and 75 mM magnesium chloride in ADB.
Active Kinase: Human Active c—Raf: Use at 0.4 U per assay point. Non-active GST-MEK1: Use at 0.1, ug per assay point. Non-active GST-p42 MAP Kinase: Use at 1.0 tg per assay point.
TBST—Tris (50 mM, pH 7.5)-1H-, NaCl (150 mM), Tween-20 (0.05%) Superblock (Pierce) Anti—GST Ab (Pharmacia) Anti-Phospho MAPK (Sigma) Anti-Mouse Ab/Europium conjugate (Wallac)
Assay Procedure: First Stage: c—Raf Dependent Activation of GST-MEK and GST-MAPK Add […] of ADB per assay (i.e. per well of a 96 well plate) Add 10 ml of 0.5 mM cold ATP and 75 mM magnesium chloride in ADB. Add 2 ml of c—Raf (0.4 U/assay), in conjunction with 1.6 ml non-active MEKI (0.4 mg/assay). Add 4 ml of non-active GST-p42 MAP Kinase (1.0 mg/assay). Incubate for 60 minutes at 30° C. in a shaking incubator. Transfer this mixture to an anti—GST Ab coated 96 well plate (Nunc Immunosorb plates coated o/n with a—GST, then blocked with Pierce Superblock). Incubate for 60 minutes at 30° C. in a shaking incubator Wash 3×with TBST, add Anti-Phospho MAPK (Sigma) (1:3000)-1H-Incubate for 60 minutes at 30° C. in a shaking incubator Wash 3×with TBST, add Anti-Mouse Ab/Europium conjugate (Wallac) (1:500)-1H-Incubate for 60 minutes at 30° C. in a shaking incubator Wash 3×with TBST, Read plates in Wallac Victor model Plate Reader. Collect data analyze in Excel for single point and IC50 determinations.
IC50 determinations - done on compounds from single point assays with >80% inhibition. Typically Raf-1 assay is run at compound concentrations from 10 μM to 30 nM in half log dilutions. (% inhibition is determined for each compound concentration).

[3] = system: human adenocarcinoma cell line CaCo-2; experiment: Cell Based Screen for Inhibitors of Raf Kinase, CaCo-2; conditions: four days incubation, SRB
Experimental: as §1, §2, §3, §4, §5

## Cn1ccnc1Sc1ccc(Nc2c(C#N)cnc3cc(-c4cnc(N5CCOCC5)nc4)ccc23)cc1Cl [Example 191, 4-{3-Chloro-4-[(1-methyl-1H-imidazol-2-yl)sulfanyl]anilino}-7-[2-(4-morpholinyl)-5-pyrimidinyl]-3-quinolinecarbonitrile]
[1]; Homo sapiens, LoVo, 96 h
  IC50: 0.03 µM
other
  melting point: > 250 °C
[2]
  IC50: 0.001 µM
[3]; Homo sapiens, Caco-2, 96 h
  IC50: > 10 µM

## 4-({3-Chloro-4-[(1-methyl-1H-imidazol-2-yl) sulfanyl]phenyl }amino)-7-[5-(1-pyridinyl]-3-quinolinecarbonitrile [Example 180]
[1]
  IC50: 0.0056 µM
[2]
  IC50: 0.0037 µM
[3]
  IC50: 0.93 µM

## Cn1ccnc1Sc1ccc(Nc2c(C#N)cnc3cc(-c4ccc(CN5CCOCC5)cc4)ccc23)cc1Cl [Example 138, 4-({3-Chloro-4-[(1-methyl-lH-imidazol-2-yl)sulfanyl]phenyl}amino)-7-{4-[(4-morpholinyl)methyl]phenyl}-3-quinolinecarbonitrile]
[1]
  IC50: 0.0062 µM
[2]
  IC50: 0.0056 µM
[3]
  IC50: 0.81 µM

## Cn1ccnc1Sc1ccc(Nc2c(C#N)cnc3cc(-c4ccc(CN5CCCCC5)cc4)ccc23)cc1Cl [Example 136, 4-{3-Chloro-4-[(1-methyl-IH-imidazol-2-yl)sulfanyl]anilino}-7-[4-(1-piperidinylmethyl)phenyl]-3-quinolinecarbonitrile]
[1]; Homo sapiens, LoVo, 96 h
  IC50: 0.011 µM
other
  melting point: 158 to 160 °C
[2]
  IC50: 0.0025 µM and 0.0018 µM
[3]; Homo sapiens, Caco-2, 96 h
  IC50: > 1 µM

## Cn1ccnc1Sc1ccc(Nc2c(C#N)cnc3cc(-c4ccc(CN5CCNCC5)cc4)ccc23)cc1Cl [Example 97, 4-({3-chloro-4-[(1-methylimidazol-2-yl)sulfanyl]phenyl}amino)-7-[4-(1-piperazinylmethyl)phenyl]-3-quinolinecarbonitrile]
[1]; Homo sapiens, LoVo, 96 h
  IC50: 0.033 µM
other
  melting point: 140 to 142 °C
[2]
  IC50: 0.016 µM
[3]; Homo sapiens, Caco-2, 96 h
  IC50: > 1 µM
